These results are taken from patent US20240150333A1, “TAF1 INHIBITORS” (H. LEE MOFFITT CANCER CENTER AND RESEARCH INSTITUTE, INC., priority 2020, published 2024).

SMILES strings stand for the structures. Entries after “also recorded” stand apart in the source; their conditions may differ.

One experiment deals with T1, BAZ2B (Homo sapiens, UniProt Q9UIF8).
T1 construct: 32 bromodomains (by DiscoveRx); purchased DiscoveRx (BromoScan service)
Put plainly: Bromoscan selectivity profiling (DiscoveRx). Format: binding. The conditions noted are these: at 20,000 nM. As for the experimental part:
(§1) qPCR-based BRD binding assay. Another method for the determination of dissociation constants of BRD-ligand complexes is offered by DiscoveRx Corp. The assay is based on competition between test compound and immobilized high-affinity ligand for binding to the KAc site of BRDs. The amount of TAF1 remaining on an immobilized high-affinity ligand in the presence of ligand is measured using a quantitative real-time polymerase chain reaction (qPCR) method that detects the associated DNA label tagged to the BRD.
(§2) Inhibitor selectivity assays To assess target selectivity, compounds with highest biochemical and cellular activities can be profiled against panels of BRDs and kinases using the services of DiscoveRx and/or Reaction biology, as we have done previously.

The next experiment deals with T2, BRPF2/BRD1 (Homo sapiens, UniProt O95696).
T2 construct: 32 bromodomains (by DiscoveRx); purchased DiscoveRx (BromoScan service)
T2 sequence (O95696 562-666 limits assumed): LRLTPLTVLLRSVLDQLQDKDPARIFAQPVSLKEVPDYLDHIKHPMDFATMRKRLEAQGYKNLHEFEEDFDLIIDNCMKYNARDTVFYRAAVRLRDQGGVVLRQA
The experiment in a line: Bromoscan selectivity profiling (DiscoveRx). The format is binding. The following applies: at 20,000 nM. On the procedure:
as §1, §2

Another experiment concerns the target T3, GCN5L(2) (Homo sapiens, UniProt Q92830).
T3 construct: purchased DiscoveRx
The experiment in a line: Bromoscan selectivity profiling (DiscoveRx). Format: binding. The conditions noted are these: at 20,000 nM. As for the experimental part:
as §1, §2

Another experiment concerns the target T4, BRPF3 (Homo sapiens, UniProt Q9ULD4).
T4 construct: purchased DiscoveRx
The experiment in a line: Bromoscan selectivity profiling (DiscoveRx). The format is binding. The conditions noted are these: at 20,000 nM. As for the experimental part:
as §1, §2

The target of the next experiment is T5, BRPF1 (Homo sapiens, UniProt P55201).
T5 construct: purchased DiscoveRx
T5 sequence (P55201 628-732 limits assumed): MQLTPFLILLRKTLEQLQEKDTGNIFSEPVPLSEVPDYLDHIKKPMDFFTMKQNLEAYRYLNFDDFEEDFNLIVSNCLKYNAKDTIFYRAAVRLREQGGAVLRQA
Put plainly: Bromoscan selectivity profiling (DiscoveRx). Format: binding. The following applies: at 20,000 nM. As for the experimental part: as §1, §2

Another experiment concerns the target T6, BRD2(2) (Homo sapiens, UniProt P25440).
T6 construct: 32 bromodomains (by DiscoveRx); purchased DiscoveRx (BromoScan service)
Put plainly: Bromoscan selectivity profiling (DiscoveRx). Format: binding. The conditions noted are these: at 20,000 nM. On the procedure: as §1, §2

For a further experiment, the target named is T7, BRD4(1) (Homo sapiens, UniProt O60885).
T7 construct: 32 bromodomains (by DiscoveRx); purchased DiscoveRx (BromoScan service)
Put plainly: Bromoscan selectivity profiling (DiscoveRx). The format is binding. The following applies: at 20,000 nM. On the procedure: as §1, §2

Another experiment deals with T8, BRD4(2) (Homo sapiens, UniProt O60885).
T8 construct: purchased DiscoveRx
Put plainly: Bromoscan selectivity profiling (DiscoveRx). The format is binding. The following applies: at 20,000 nM. As for the experimental part: as §1, §2

The target in a further experiment is T9, BRDT(2) (Homo sapiens, UniProt Q58F21).
T9 construct: BRDT(2); purchased DiscoveRx
The experiment in a line: Bromoscan selectivity profiling (DiscoveRx). Format: binding. The following applies: at 20,000 nM. As for the experimental part: as §1, §2

In the next experiment the target is T10, BRD7 (Homo sapiens, UniProt Q9NPI1).
T10 construct: purchased DiscoveRx
T10 sequence (Q9NPI1 131-235 limits assumed): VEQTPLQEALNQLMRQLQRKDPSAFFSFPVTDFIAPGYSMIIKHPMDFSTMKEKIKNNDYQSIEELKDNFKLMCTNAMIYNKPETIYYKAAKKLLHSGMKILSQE
The experiment in a line: Bromoscan selectivity profiling (DiscoveRx). Format: binding. The following applies: at 20,000 nM. On the procedure:
as §1, §2

The next experiment relates to panel of 32 bromodomains. The experiment in a line: Profiling across a panel of 32 bromodomains (DiscoveRx), overall statement. The following applies: 20 μM concentration. Format: binding, human.

The inhibition is the share of the control response that was lost under treatment. A low value points to a response near the control.

T3 sequence (Q92830 728-832 limits assumed): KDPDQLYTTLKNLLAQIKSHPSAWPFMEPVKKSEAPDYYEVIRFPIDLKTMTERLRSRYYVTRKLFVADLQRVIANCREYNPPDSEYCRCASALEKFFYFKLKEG
T4 sequence (Q9ULD4 589-693 limits assumed): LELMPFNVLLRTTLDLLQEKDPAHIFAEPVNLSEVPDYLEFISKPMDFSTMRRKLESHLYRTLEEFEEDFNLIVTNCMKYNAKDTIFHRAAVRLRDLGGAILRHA
T1 sequence (Q9UIF8 2060-2164 limits assumed): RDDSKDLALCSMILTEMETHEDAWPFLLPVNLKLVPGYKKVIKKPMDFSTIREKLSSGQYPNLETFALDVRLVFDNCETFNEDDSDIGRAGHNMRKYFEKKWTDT
T6 sequence (P25440 344-453 limits assumed): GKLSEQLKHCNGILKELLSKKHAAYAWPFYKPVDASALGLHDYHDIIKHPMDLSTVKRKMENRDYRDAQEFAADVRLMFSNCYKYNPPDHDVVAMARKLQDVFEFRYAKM

Consider `C[C@@H]1COCCN1c1cc(C2([S@](C)(=N)=O)CC2)nc(-c2cc[nH]c3nccc2-3)n1` [AZD6738], for which the inhibition at 20 µM was 0% against BAZ2B; 6% on BRPF2/BRD1; 27% against GCN5L(2); 20% at BRPF3; 11% at BRPF1; 84% against BRD2(2). Further, the inhibition at 20 µM amounted to 50% on BRD4(1), 69% against BRD4(2), 38% against BRDT(2) and 14% at BRD7. In addition, the “Interaction with BRD2-2, BRD3-2, BRD4-2, CECR2 and WDR9-2” value in the experiment on panel of 32 bromodomains is listed as “interacted weakly; also recorded: weakly interacted”.
